Consider three compounds from patent US20110257144A1 (APEX LABORATORIES PRIVATE LIMITED, priority 2008, published 2011).

Data set [1] has as its system Staphylococcus aureus. Nature of the data set: In vitro antimicrobial zone of inhibition study. The format is cell-based. The method, then: API-stability experiments were carried out (see tables 4-14) using the product of the present invention and products currently commercially available. Tests were carried out to observe (or measure as appropriate) the physical appearance of the product, the pH value and assay of the API over a period of time. Tests were also carried out to assess the stability by subjecting the product to stress studies such as autoclave test and oxydative degradation test. Further, in vitro antimicrobial zone of inhibition studies were also carried out over a period of time. […] The antimicrobial/antibacterial activity of the product is confirmed by the in vitro Antimicrobial Zone of Inhibition studies for the product against Staphylococcus aureus. The details of the studies are detailed below in Table 15.

The nature of data set [2]: Stability of raw API after 3 months in open and closed Petri dish, stability-indicating HPLC method and titration method. The format is physicochemical. As to conditions: for Percentage Drop (%) HPLC: after 3 months; for *Initial (%): assay at the time of receipt of the API from the supplier. The method, then: Degradation due to oxidation is a major cause of instability of currently available Fusidic acid creams. […] It can be observed from Tables 1 and 2 that: • In the case of Fusidic Acid, there is about 7.7% loss in 3 Months at room temperature (open condition) and about 11% loss in 3 Months at 45° C. […] (open condition).

As for `CC1(C)S[C@@H]2[C@H](NC(=O)Cc3ccccc3)C(=O)N2[C@H]1C(=O)O` [Penicillin G], in data set [1] (dose 10 Units), the Inference entry is “Resistant” and the “Zone Diameter Range (mm)” value is 21-27 mm.

In the case of `CC(=O)O[C@H]1C[C@@]2(C)[C@@H](C[C@@H](O)[C@H]3[C@@]4(C)CC[C@@H](O)[C@@H](C)[C@@H]4CC[C@@]32C)/C1=C(\CCC=C(C)C)C(=O)O` [Fusidic acid], the “Percentage Drop (%) HPLC” value in data set [2] (45° C. (Open) Petri dish) is listed as “about 11%”; in data set [2] (RT (Open) Petri dish), “about 7.7%”. Also, the “*Initial (%)” value in data set [2] (listed as FUSIDIC ACID BP) came to 100.6%. In addition, the Inference result in data set [1] (dose 10 mcg), in data set [1] (dose 20 mcg) and in data set [1] (dose 50 mcg) was “Sensitive” throughout. In addition, the “Zone Diameter Range (mm)” value in data set [1] (dose 10 mcg) is 21-33 mm; in data set [1] (dose 20 mcg) it was 20-30 mm; in data set [1] (dose 50 mcg), 25-32 mm.

For the compound `CC(=O)O[C@H]1C[C@@]2(C)[C@@H](C[C@@H](O)[C@H]3[C@@]4(C)CC[C@@H](O)[C@@H](C)[C@@H]4CC[C@@]32C)/C1=C(\CCC=C(C)C)C(=O)O` [Sodium Fusidate], the “Percentage Drop (%) HPLC” value in data set [2] (45° C. (Open) Petri dish) is reported as “about 6%”; in data set [2] (RT (Open) Petri dish), “about 2.5%”. Moreover, in data set [2] (Sodium Fusidate versus Fusidic acid, Tables 1 and 2), the “stability as an API (comparison)” value is recorded as “more stable than Fusidic acid”. Besides, the “*Initial (%)” value in data set [2] (listed as Sodium Fusidate BP) was found to be 98.7%.
